Results published in patent US9399623B2, “Quinoline derivatives and their use in neurodegenerative diseases” (Merck Patent GmbH, priority 2014, dated 2016).
pIC50: −log10 of the molar value.

Experiments:
[1] = target: T1, P2X7 (Homo sapiens, UniProt Q99572); test: Pore permeation assay (YO PRO dye uptake, BzATP-induced); format: cell-based; parameters: expressed in transfected cells; host or cells: HEK293; details: HEK293 transfected with human P2X7 receptor; YO PRO dye 1 uM, BzATP 10 uM; read-out: hP2X7 IC50
T1 sequence (Q99572 1-595): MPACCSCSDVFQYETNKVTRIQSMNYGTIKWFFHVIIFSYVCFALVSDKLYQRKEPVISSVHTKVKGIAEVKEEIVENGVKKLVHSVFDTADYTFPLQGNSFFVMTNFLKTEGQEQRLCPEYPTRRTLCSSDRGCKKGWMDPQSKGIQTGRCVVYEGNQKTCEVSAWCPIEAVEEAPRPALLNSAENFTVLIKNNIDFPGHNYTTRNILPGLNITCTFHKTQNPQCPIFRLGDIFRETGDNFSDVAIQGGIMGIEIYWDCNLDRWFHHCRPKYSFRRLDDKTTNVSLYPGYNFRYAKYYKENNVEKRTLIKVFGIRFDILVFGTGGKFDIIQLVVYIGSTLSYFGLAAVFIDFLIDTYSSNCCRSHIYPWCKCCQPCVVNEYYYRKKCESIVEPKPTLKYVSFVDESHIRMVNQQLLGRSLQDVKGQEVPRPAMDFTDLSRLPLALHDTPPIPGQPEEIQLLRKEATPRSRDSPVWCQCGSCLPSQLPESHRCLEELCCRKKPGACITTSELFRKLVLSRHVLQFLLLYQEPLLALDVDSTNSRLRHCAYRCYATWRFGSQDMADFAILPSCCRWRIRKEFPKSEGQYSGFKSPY
Procedure: Agonist-induced pore formation was determined by measuring cellular uptake of YO PRO fluorescence dye in HEK293 transfected with human P2X7 receptor. A HEK293 cell over expressing human P2X7 was harvested using HQTase reagent to detach the cells from T75 cm flask. The harvested cells are centrifuged @ 1200 rpm for 5 min at room temperature. The viability of cells was determined by Trypan blue dye and the cells are plated @ 10,000 cell/well in 50 ul volume in a 384 W BD Poly lysine coated plate and incubated overnight at 37 C. After overnight incubation, the culture medium was replaced with 35 ul/well assay buffer (5 mM KCl, 0.1 mM CaCl2, 5 mM Glucose, 10 mM HEPES buffer pH7.4 containing 125 mM NaCl. The serial dilution of compounds was performed using Bravo liquid handling instrument and the compounds were added using Bravo to the cell assay plate starting at 2.5 uM with three dilutions for 10 points. The positive control inhibitor compound was added to column 23. The plate was shaken slowly on a plate shaker for 10 seconds. The cells were incubated with the compound for 20 minutes at room temperature. After the incubation period, YO PRO dye (1 uM) along with BzATP (10 uM) were added to cells at 10 ul/well. The plate was centrifuged at 1000 rpm for 5 seconds and incubated at room temperature for 30 minutes. The uptake of YO PRO dye into the cells was measured using Envision Fluorescence plate reader instrument (Perkin Elmer).

[2] = target: T1, P2X7; test: IL-1β release assay in THP-1 cells (sandwich ELISA); format: cell-based; parameters: release of mature IL-1β in the culture medium of THP-1 cells; endogenous in cells; host or cells: THP-1 cells (PMA-differentiated, LPS-primed); details: PMA, LPS primed, stimulated with 0.8 mM BzATP, mature IL-1β release, read-out: hTHP-1/IL-ib IC50
Procedure: The activation of P2X7 by ATP leads to a fast transient activation of cells resulting in influx of Ca^2+ followed by conversion of pro-IL-1β to active IL-1β. The functional activity of P2X7 compounds was measured by the release of mature IL-1β in the culture medium of THP-1 cells, detected by sandwich ELISA. Cells were maintained in complete growth medium (RPMI 1640+10% HI-FCS+2 mM L-glutamine+1×PS). […] THP-1 cells were harvested from the flask in 50 ml by centrifugation for 3 min at 100 g. The cells were resuspended to 2×10^5 cells/ml in medium supplemented with 0.5 μM PMA and incubated. The cells were washed and resuspended to 1.5×10^5 cells/ml in medium complemented with 10 ng/ml LPS, and the cells were primed for 4 h at 37° C., 5% CO2. After addition of 20 μL of prediluted test compounds, blank, standard and control reagents, cells were incubated for a further 20 min at 37° C. and stimulated with 0.8 mM BzATP for 30 minutes. The cells were centrifuged, supernatant was collected and the presence of mature IL-1β was detected using Dual human IL-1b kit following manufacturer's instruction. The tetrahydrobenzodiazepine analogs effectively modulated the activity of P2X7 in the cells as measured by the levels of pro-inflammatory cytokine IL-1β, which is released by the activation of P2X7 receptor.

SMILES | pIC50 [1] | pIC50 [2]
O=C(NC[C@]1(O)CCCC(F)(F)C1)c1c(Cl)ccc2nc(N3CCC(F)(F)C3)ccc12 [Compound 80, 6-Chloro-2-(3,3-difluoropyrrolidin-1-yl)-quinoline-5-carboxylic acid ((S)-3,3-difluoro-1-hydroxycyclohexylmethyl)-amide] | 6.30 to 7.00 | < 6.00
CCOC(=O)C1CCCN(c2ccc3c(C(=O)NCC4CCC(F)(F)CC4)c(Cl)ccc3n2)C1 (centres unmarked) [Compound 55, 1-{6-Chloro-5-[(4,4-difluoro-cyclohexylmethyl)-carbamoyl]-quinolin-2-yl}-piperidine-3-carboxylic acid ethyl ester] | 7.00 to 8.00 | < 6.00
O=C(NCC1CCC(F)(F)CC1)c1c(Cl)ccc2nc(C3CCOCC3)ccc12 [Compound 47, 6-Chloro-2-(tetrahydro-pyran-4-yl)-quinoline-5-carboxylic acid (4,4-difluoro-cyclohexyl methyl)-amide] | 7.00 to 8.00 | 6.30 to 7.00
C[C@@H]1CCC[C@](O)(CNC(=O)c2c(Cl)ccc3nc(N4CCC(F)C4)ccc23)C1 (stereo partly drawn) [Compound 5, 6-Chloro-2-(3-fluoropyrrolidin-1-yl)-quinoline-5-carboxylic acid ((1R,3R)-1-hydroxy-3-methyl-cyclohexylmethyl)-amide] | > 8.00 | 7.00 to 8.00
C[C@@H]1CCC[C@](O)(CNC(=O)c2c(Cl)ccc3nc(N4CC[C@@H](F)C4)ccc23)C1 [Compound 8, 6-Chloro-2-(3-(R)-fluoropyrrolidin-1-yl)-quinoline-5-carboxylic acid ((1R,3R)-1-hydroxy-3-methyl-cyclohexylmethyl)-amide] | > 8.00 | 7.00 to 8.00
O=C(NCC1CCCC(F)(F)C1)c1c(Cl)ccc2nc(N3CCC(N4CCCC4)C3)ccc12 (centres unmarked) [Compound 34, 6-Chloro-2-(3-pyrrolidinyl-pyrrolidin-1-yl)-quinoline-5-carboxylic acid (3,3-difluoro-cyclohexylmethyl)-amide] | 7.00 to 8.00 | 7.00 to 8.00
O=C(NCC1CCC(F)(F)CC1)c1c(Cl)ccc2nc(N3CC[C@@H](O)C3)ccc12 [Compound 61] | 7.00 to 8.00 | 6.30 to 7.00
CNC1CCN(c2ccc3c(C(=O)NCC4CCC(F)(F)CC4)c(Cl)ccc3n2)C1 (centres unmarked) [Compound 17, 6-Chloro-2-(3-methylamino-pyrrolidin-1-yl)-quinoline-5-carboxylic acid (4,4-difluoro-cyclohexylmethyl)-amide] | > 8.00 | 7.00 to 8.00
O=C(NCC1(O)CCCCCC1)c1c(Cl)ccc2ncccc12 [Compound 65] | 7.00 to 8.00 | 6.30 to 7.00
C[C@@H]1CCC[C@](O)(CNC(=O)c2c(Cl)ccc3nc(N4CCC(F)(F)C4)ccc23)C1 [Compound 10, 6-Chloro-2-(3,3-difluoropyrrolidin-1-yl)-quinoline-5-carboxylic acid ((1R,3R)-1-hydroxy-3-methyl-cyclohexylmethyl)-amide] | > 8.00 | 7.00 to 8.00
CN(C)C1CCN(c2ccc3c(C(=O)NCC4CCC(F)(F)CC4)c(Cl)ccc3n2)C1 (centres unmarked) [Compound 52] | 7.00 to 8.00 | 6.30 to 7.00
C[C@@H]1CCC[C@](O)(CNC(=O)c2c(Cl)ccc3nc(N4CC[C@H](N(C)C)C4)ccc23)C1 [Compound 4, 6-Chloro-2-((S)-3-dimethylamino-pyrrolidin-1-yl)-quinoline-5-carboxylic acid ((1R,3R)-1-hydroxy-3-methyl-cyclohexylmethyl)-amide] | > 8.00 | > 8.00
C[C@@H]1CCC[C@](O)(CNC(=O)c2c(Cl)ccc3nc(N4CC[C@H](F)C4)ccc23)C1 [Compound 9, 6-Chloro-2-(3-(S)-fluoropyrrolidin-1-yl)-quinoline-5-carboxylic acid ((1R,3R)-1-hydroxy-3-methyl-cyclohexylmethyl)-amide] | > 8.00 | 7.00 to 8.00
COCCCOc1ccc2c(C(=O)NCC3(O)CCC(F)(F)CC3)c(Cl)ccc2n1 [Compound 62, 6-Chloro-2-(3-methoxy-propoxy)-quinoline-5-carboxylic acid (4,4-difluoro-1-hydroxy-cyclohexyl methyl)-amide] | 7.00 to 8.00 | 6.30 to 7.00
O=C(NCC1CCC(F)(F)CC1)c1c(Cl)ccc2nc(C#CCO)ccc12 [Compound 19, 6-Chloro-2-(3-hydroxy-prop-1-ynyl)-quinoline-5-carboxylic acid (4,4-difluoro-cyclo hexylmethyl)-amide] | > 8.00 | 7.00 to 8.00

Now from value to compound:

pIC50 [1] | pIC50 [2] | SMILES
7.00 to 8.00 | 7.00 to 8.00 | O=C(NCC1CCCC(F)(F)C1)c1c(Cl)ccc2nc(N3CCC(F)C3)ccc12 (centres unmarked) [Compound 39, 6-Chloro-2-(3-fluoropyrrolidin-1-yl)-quinoline-5-carboxylic acid (3,3-difluoro-cyclohexylmethyl)-amide]
6.30 to 7.00 | 7.00 to 8.00 | O=C(NCC1(O)CCC(F)(F)CC1)c1c(Cl)ccc2ncccc12 [Compound 76]
7.00 to 8.00 | 7.00 to 8.00 | O=C(NCC1CCC(F)(F)CC1)c1c(Cl)ccc2nc(N3CCC(CCO)C3)ccc12 (centres unmarked) [Compound 56]
7.00 to 8.00 | 7.00 to 8.00 | O=C(NCC1CCC(F)(F)CC1)c1c(Cl)ccc2nc(N3CCC3)ccc12 [Compound 49, 2-(azetidin-1-yl)-6-Chloro-quinoline-5-carboxylic acid (4,4-difluoro-cyclohexylmethyl)-amide]
7.00 to 8.00 | 6.30 to 7.00 | O=C(NCC1CCC(F)(F)CC1)c1c(Cl)ccc2nc(N3CC[C@@H](CCO)C3)ccc12 [Compound 26, 6-Chloro-2-((S)-3-hydroxyethyl-pyrrolidin-1-yl)-quinoline-5-carboxylic acid (4,4-difluoro-cyclohexylmethyl)-amide]
7.00 to 8.00 | 6.30 to 7.00 | O=C(NCC1CCC(F)(F)CC1)c1c(Cl)ccc2nc(N3CCC(C(F)F)C3)ccc12 (centres unmarked) [Compound 59, 6-Chloro-2-(3-difluoromethyl-pyrrolidin-1-yl)-quinoline-5-carboxylic acid (4,4-difluoro-cyclohexylmethyl)-amide]
7.00 to 8.00 | 6.30 to 7.00 | COCCCOc1ccc2c(C(=O)NCC3CCC(F)(F)CC3)c(Cl)ccc2n1 [Compound 69, 6-Chloro-2-(3-methoxy-propoxy)-quinoline-5-carboxylic acid (4,4-difluoro-cyclohexylmethyl)-amide]
7.00 to 8.00 | 7.00 to 8.00 | O=C(NCC1CCCC(F)(F)C1)c1c(Cl)ccc2nc(N3CCC(CO)C3)ccc12 (centres unmarked) [Compound 35, 6-Chloro-2-(3-hydroxymethylpyrrolidin-1-yl)-quinoline-5-carboxylic acid (3,3-difluoro-cyclohexylmethyl)-amide]
7.00 to 8.00 | 7.00 to 8.00 | O=C(NCC1CCC(F)(F)CC1)c1c(Cl)ccc2nc(N3CCC(N4CCCC4)C3)ccc12 (centres unmarked) [Compound 30, 6-Chloro-2-(3-pyrrolidinyl-pyrrolidin-1-yl)-quinoline-5-carboxylic acid (4,4-difluoro-cyclohexylmethyl)-amide]
7.00 to 8.00 | 6.30 to 7.00 | CN(CCO)c1ccc2c(C(=O)NCC3CCC(F)(F)CC3)c(Cl)ccc2n1 [Compound 73]
